This is an account of results in US20240270715A1, “INHIBITORS OF TRANSGLUTAMINASES” (ZEDIRA GMBH, priority 2021, published 2024).

For data set [1], the target named is T1, recombinant human transglutaminase 2 (Homo sapiens, UniProt P21980).
T1 sequence (P21980 1-687): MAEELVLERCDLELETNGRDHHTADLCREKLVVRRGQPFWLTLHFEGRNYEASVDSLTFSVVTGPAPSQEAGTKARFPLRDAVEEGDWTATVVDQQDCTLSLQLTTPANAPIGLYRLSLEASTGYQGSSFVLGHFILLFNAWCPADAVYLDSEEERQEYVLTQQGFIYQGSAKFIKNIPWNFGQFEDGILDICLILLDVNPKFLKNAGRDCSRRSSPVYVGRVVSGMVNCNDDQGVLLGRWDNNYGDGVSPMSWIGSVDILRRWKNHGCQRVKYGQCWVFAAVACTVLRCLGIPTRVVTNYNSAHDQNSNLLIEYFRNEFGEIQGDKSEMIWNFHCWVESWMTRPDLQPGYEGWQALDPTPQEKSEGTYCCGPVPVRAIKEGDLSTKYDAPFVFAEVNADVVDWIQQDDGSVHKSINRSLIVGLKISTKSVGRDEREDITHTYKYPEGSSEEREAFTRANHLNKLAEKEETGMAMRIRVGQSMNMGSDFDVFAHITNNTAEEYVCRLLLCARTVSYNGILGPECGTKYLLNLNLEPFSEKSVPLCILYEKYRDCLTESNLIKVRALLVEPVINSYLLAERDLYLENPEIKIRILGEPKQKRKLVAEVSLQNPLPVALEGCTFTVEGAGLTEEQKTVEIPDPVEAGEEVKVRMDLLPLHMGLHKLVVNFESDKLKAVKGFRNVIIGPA
In words: Transglutaminase assay: incorporation of dansylcadaverine into dimethylcasein (DCC-assay). It is filed as biochemical. To be noted: recombinant human TG2 10 nM, dansylcadaverine/dimethylcasein; read-out: IC50 TG2. The method, boiled down:
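Recombinant human TG2 (10 nM final) incorporates dansylcadaverine (16.7 μM) into N,N-dimethylcasein (4 μM) in Tris-HCl buffer, pH 8.0, with 10 mM CaCl2 and 10 mM glutathione. Fluorescence (λex 330, λem 500 nm) followed 30 min. The slope between 20–30 min gives activity versus DMSO control, and IC50 comes from the concentration–activity plot.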

Data set [2] can be described thus: Caco-2 permeability assay (CacoReady kit). It is filed as in vitro ADME. The conditions noted are these: human. Summed up:
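Read-out is the permeability coefficient Papp, obtained from transport across a Caco-2 barrier prepared from a ready-to-use kit following the manufacturer's instructions.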

The nature of data set [3]: Log D by shake flask method (octanol / PBS pH 7.4, HPLC). It is filed as physicochemical. The conditions noted are these: octanol / PBS pH 7.4, shake flask; read-out: logD. The method, boiled down:
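Shake-flask partitioning of compound between octanol and PBS at pH 7.4, with phase concentrations quantified by HPLC. The value reported is Log D.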

pIC50: −log10 of the molar value. A value given as a limit tells only on which side of the number the result lay.

As to `CCNC(=O)C(=O)CC[C@H](NC(=O)c1cc2ccccc2nn1)C(=O)Nc1cccn(CC(=O)NC23CC(C2)C3)c1=O` [Compound I-100, (S)-N1-(1-(2-(bicyclo[1.1.1]pentan-1-ylamino)-2-oxoethyl)-2-oxo-1,2-dihydropyridin-3-yl)-2-(cinnoline-3-carboxamido)-N6-ethyl-5-oxohexanediamide], the pIC50 in data set [1] was 5.46 to 6.22. In data set [2], this compound gave a Papp below 1 ×10⁻⁶ cm/s. Moreover, in data set [3], the logD was below 1.

With `CCNC(=O)C(=O)CC[C@H](NC(=O)c1oc2ccccc2c1CC)C(=O)Nc1cccn(CC(=O)NC23CC(C2)C3)c1=O` [Compound I-101, (S)-N1-(1-(2-(bicyclo[1.1.1]pentan-1-ylamino)-2-oxoethyl)-2-oxo-1,2-dihydropyridin-3-yl)-N6-ethyl-2-(3-ethylbenzofuran-2-carboxamido)-5-oxohexanediamide], the pIC50 in data set [1] was 6.22 to 6.82. In addition, in data set [2], the Papp lay within 1 to 10 ×10⁻⁶ cm/s. For the same compound, the logD in data set [3] was below 1.

For `CCNC(=O)C(=O)CC[C@H](NC(=O)c1cc2ccccc2n1CC)C(=O)Nc1cccn(CC(=O)NC23CC(C2)C3)c1=O` [Compound I-102, (S)-N1-(1-(2-(bicyclo[1.1.1]pentan-1-ylamino)-2-oxoethyl)-2-oxo-1,2-dihydropyridin-3-yl)-N6-ethyl-2-(1-ethyl-1H-indole-2-carboxamido)-5-oxohexanediamide], the pIC50 in data set [1] was 6.22 to 6.82. This compound registered a Papp in data set [2] of 1 to 10 ×10⁻⁶ cm/s. The logD in data set [3] was in the range of 1 to 3.

`CCNC(=O)C(=O)CC[C@H](NC(=O)c1cc2cccnc2nc1C)C(=O)Nc1cccn(CC(=O)NC23CC(C2)C3)c1=O` [Compound I-103, (S)-N1-(1-(2-(bicyclo[1.1.1]pentan-1-ylamino)-2-oxoethyl)-2-oxo-1,2-dihydropyridin-3-yl)-N6-ethyl-2-(2-methyl-1,8-naphthyridine-3-carboxamido)-5-oxohexanediamide]: the pIC50 in data set [1] was 5.46 to 6.22. This compound also returned a Papp in data set [2] below 1 ×10⁻⁶ cm/s. Besides, the logD in data set [3] is below 1.

As for `CCNC(=O)C(=O)CC[C@H](NC(=O)c1ccc2c(c1)CCCN2)C(=O)Nc1cccn(CC(=O)NC23CCC(C2)C3)c1=O` [Compound I-104, (S)-N1-(1-(2-(bicyclo[2.1.1]hexan-1-ylamino)-2-oxoethyl)-2-oxo-1,2-dihydropyridin-3-yl)-N6-ethyl-5-oxo-2-(1,2,3,4-tetrahydroquinoline-6-carboxamido)hexanediamide], the pIC50 in data set [1] was 5.46 to 6.22. For the same compound, in data set [2], the Papp is below 1 ×10⁻⁶ cm/s. The logD in data set [3] is below 1.

As to `CCNC(=O)C(=O)CC[C@H](NC(=O)c1ccc2c(c1)CC(=O)NC2)C(=O)Nc1cccn(CC(=O)NC2(C(=O)O)C3CC4CC2CC(C(F)(F)F)(C4)C3)c1=O` (stereo partly drawn) [Compound I-105, (S)-N1-ethyl-N6-(1-(2-(2-carboxy-2-amino-5-(trifluoromethyl)adamantane)-2-oxoethyl)-2-oxo-1,2-dihydropyridin-3-yl)-2-oxo-5-(3-oxo-1,2,3,4-tetrahydroisoquinoline-6-carboxamido)hexanediamide], the pIC50 in data set [1] was 5.46 to 6.22. The Papp in data set [2] is below 1 ×10⁻⁶ cm/s. Further, in data set [3], the logD was below 1.

On to `CCNC(=O)C(=O)CC[C@H](NC(=O)c1ccc2cnccc2n1)C(=O)Nc1cccn(CC(=O)NC2C3CC4CC2CC(CC)(C4)C3)c1=O` (stereo partly drawn) [Compound I-106, (S)-N1-ethyl-N6-(1-(2-(5-ethyladamantane-2-amino)-2-oxoethyl)-2-oxo-1,2-dihydropyridin-3-yl)-5-(1,6-naphthyridine-2-carboxamido)-2-oxohexanediamide], for which the pIC50 in data set [1] was 5.46 to 6.22. In data set [2], this compound showed an apparent permeability (Papp) below 1 ×10⁻⁶ cm/s. In addition, in data set [3], the logD lay within 3 to 5.

As to `CCNC(=O)C(=O)CC[C@H](NC(=O)c1nccc2cnccc12)C(=O)Nc1cccn(CC(=O)NC23CCC(C2)C3)c1=O` [Compound I-107, (S)-N1-(1-(2-(bicyclo[2.1.1]hexan-1-ylamino)-2-oxoethyl)-2-oxo-1,2-dihydropyridin-3-yl)-N6-ethyl-2-(2,6-naphthyridine-1-carboxamido)-5-oxohexanediamide], the pIC50 in data set [1] is 5.46 to 6.22. For the same compound, the Papp in data set [2] was below 1 ×10⁻⁶ cm/s. Moreover, in data set [3], the logD is below 1.

For `CCNC(=O)C(=O)CC[C@H](NC(=O)c1nonc1N)C(=O)Nc1cccn(CC(=O)NC23CC(C2)C3)c1=O` [Compound I-108, (S)-2-(4-amino-1,2,5-oxadiazole-3-carboxamido)-N1-(1-(2-(bicyclo[1.1.1]pentan-1-ylamino)-2-oxoethyl)-2-oxo-1,2-dihydropyridin-3-yl)-N6-ethyl-5-oxohexanediamide], in data set [1], the pIC50 was 5.46 to 6.22. Further, the Papp in data set [2] is below 1 ×10⁻⁶ cm/s. Besides, the logD in data set [3] is below 1.

As to `CCNC(=O)C(=O)CC[C@H](NC(=O)c1cc2ccc(N(C)C)cc2o1)C(=O)Nc1cccn(CC(=O)NC23CC(C2)C3)c1=O` [Compound I-109, (S)-N1-(1-(2-(bicyclo[1.1.1]pentan-1-ylamino)-2-oxoethyl)-2-oxo-1,2-dihydropyridin-3-yl)-2-(6-(dimethylamino)benzofuran-2-carboxamido)-N6-ethyl-5-oxohexanediamide], in data set [1], the pIC50 was 6.22 to 6.82. The compound further came in with a Papp in data set [2] below 1 ×10⁻⁶ cm/s. Moreover, in data set [3], the logD is below 1.

With `CCNC(=O)C(=O)CC[C@H](NC(=O)c1cnc(NC(C)=O)s1)C(=O)Nc1cccn(CC(=O)NC23CC(C2)C3)c1=O` [Compound I-110, (S)-2-(2-acetamidothiazole-5-carboxamido)-N1-(1-(2-(bicyclo[1.1.1]pentan-1-ylamino)-2-oxoethyl)-2-oxo-1,2-dihydropyridin-3-yl)-N6-ethyl-5-oxohexanediamide], the negative-log IC50 (pIC50) in data set [1] is 5.46 to 6.22. Moreover, the Papp in data set [2] is below 1 ×10⁻⁶ cm/s. The logD in data set [3] is below 1.

For the compound `CCNC(=O)C(=O)CC[C@H](NC(=O)c1c[nH]c(C(N)=O)c1)C(=O)Nc1cccn(CC(=O)NC23CC(C2)C3)c1=O` [Compound I-111, (S)-N4-(1-(1-(2-(bicyclo[1.1.1]pentan-1-ylamino)-2-oxoethyl)-2-oxo-1,2-dihydropyridin-3-ylamino)-6-(ethylamino)-1,5,6-trioxohexan-2-yl)-1H-pyrrole-2,4-dicarboxamide], the pIC50 in data set [1] is 5.46 to 6.22. This compound also registered a Papp in data set [2] below 1 ×10⁻⁶ cm/s. Moreover, in data set [3], the logD was below 1.

Turning to `CCNC(=O)C(=O)CC[C@H](NC(=O)c1coc(S(N)(=O)=O)c1)C(=O)Nc1cccn(CC(=O)NC2C3CC4CC2CC(NC(C)=O)(C4)C3)c1=O` (stereo partly drawn) [Compound I-112, (S)-N1-ethyl-N6-(1-(2-(1-acetylamino-4-aminoadamantane)-2-oxoethyl)-2-oxo-1,2-dihydropyridin-3-yl)-2-oxo-5-(5-sulfamoylfuran-3-carboxamido)hexanediamide], in data set [1], the pIC50 was 5.46 to 6.22. In data set [2], this compound displayed a Papp below 1 ×10⁻⁶ cm/s. In addition, the logD in data set [3] is below 1.

With `CCNC(=O)C(=O)CC[C@H](NC(=O)c1ccc2occc2c1)C(=O)Nc1cccn(CC(=O)NC2C3CC4CC2CC(NC(C)=O)(C4)C3)c1=O` (stereo partly drawn) [Compound I-113, (S)-2-(benzofuran-5-carboxamido)-N6-ethyl-N1-(1-(2-(1-acetylamino-4-aminoadamantane)-2-oxoethyl)-2-oxo-1,2-dihydropyridin-3-yl)-5-oxohexanediamide], the pIC50 in data set [1] is 6.22 to 6.82. Further, in data set [2], the Papp is below 1 ×10⁻⁶ cm/s. Also, the logD in data set [3] was below 1.

With `CCNC(=O)C(=O)CC[C@H](NC(=O)c1ccc2ccoc2c1)C(=O)Nc1cccn(CC(=O)NC2C3CC4CC2CC(C(N)=O)(C4)C3)c1=O` (stereo partly drawn) [Compound I-114, (S)-2-(benzofuran-6-carboxamido)-N6-ethyl-N1-(1-(2-(4-aminoadamantane-1-carboxamide)-2-oxoethyl)-2-oxo-1,2-dihydropyridin-3-yl)-5-oxohexanediamide], the pIC50 in data set [1] is 6.22 to 6.82. This compound returned a Papp in data set [2] below 1 ×10⁻⁶ cm/s. Further, the logD in data set [3] is below 1.

Regarding `CCNC(=O)C(=O)CC[C@H](NC(=O)c1nc(C2(C)CC2)no1)C(=O)Nc1cccn(CC(=O)NC2C3CC4CC2CC(C(N)=O)(C4)C3)c1=O` (stereo partly drawn) [Compound I-115, (S)-N1-ethyl-N6-(1-(2-(4-aminoadamantane-1-carboxamide)-2-oxoethyl)-2-oxo-1,2-dihydropyridin-3-yl)-5-(3-(1-methylcyclopropyl)-1,2,4-oxadiazole-5-carboxamido)-2-oxohexanediamide], the pIC50 in data set [1] was 5.46 to 6.22. The same compound displayed a Papp in data set [2] below 1 ×10⁻⁶ cm/s. The log distribution coefficient (logD) in data set [3] was below 1.
